# Laboratory results published in patent publication US12503438B2, “Compounds for the treatment of kinase-dependent disorders” (Exelixis, Inc., priority 2019, dated 2025).
# How the values were obtained:
# KDR = KDR (Homo sapiens, UniProt P35968); experiment: KDR autophosphorylation ELISA in HUVEC cells; type: cell-based; design: endogenous in cells; host or cells: HUVEC (Lonza #C2519A); settings: cellular activity, VEGF165-stimulated, phospho-KDR ELISA
# Description: Human umbilical vein endothelial cells or HUVEC (Lonza #C2519A) were seeded at 2×10^4 cells/well onto 96-well plates (Corning #3904), in EGM-2 growth medium (Lonza #CC-3162) containing 1% Penicillin Streptomycin (Thermo Fisher #15140-122). HUVEC cells were incubated at 37° C., 5% CO2 for 24 h and then starved for 24 h in serum-free EBM-2 basal medium (Lonza #CC-3156) containing 1% Penicillin Streptomycin. Test compounds were serially diluted to produce an 8-point dose curve in fresh serum-free medium to a final concentration of 0.3% DMSO (vehicle) and added to the cells and incubated for 1 h. Cells were then stimulated with 100 ng/mL recombinant human VEGF165 (R&D Systems #293-VE-500) for 5 min, washed with cold PBS, and immediately lysed with 130 μL of cold 1× lysis buffer [20 mM Tris, 137 mM sodium chloride, 2 mM EDTA, 10% glycerol, 1% NP-40 alternative, 1 mM activated sodium orthovanadate, 1 mM PefaBloc SC (Sigma-Aldrich #11429868001), protease/phosphatase inhibitor tablet (Thermo Fisher #A32959)]. Lysates were collected and 100 μL/well added into the human phospho-KDR DuoSet IC ELISA (R&D Systems #DYC1766-2). Assay was performed according to manufacturer's instructions and sample phospho-KDR concentrations were extrapolated using human phospho-KDR control (R&D Systems #841421) as a standard. Positive control wells (100% activity) contained VEGF165-stimulated, DMSO-treated cell lysates. Negative control wells (0% activity) contained non-stimulated cell lysates. IC50 values were calculated by nonlinear regression analysis using a 4-parameter logistic curve fit in ActivityBase XE (IDBS).
# Met = Met (Homo sapiens, UniProt P08581); experiment: Met autophosphorylation ELISA in PC-3 cells; type: cell-based; design: endogenous in cells; host or cells: PC-3 prostate cancer cells (ATCC #CRL-1435); settings: cellular activity, HGF-stimulated, phospho-Met ELISA, read-out: c-Met IC50
# Chain of Met (P08581 25-1390): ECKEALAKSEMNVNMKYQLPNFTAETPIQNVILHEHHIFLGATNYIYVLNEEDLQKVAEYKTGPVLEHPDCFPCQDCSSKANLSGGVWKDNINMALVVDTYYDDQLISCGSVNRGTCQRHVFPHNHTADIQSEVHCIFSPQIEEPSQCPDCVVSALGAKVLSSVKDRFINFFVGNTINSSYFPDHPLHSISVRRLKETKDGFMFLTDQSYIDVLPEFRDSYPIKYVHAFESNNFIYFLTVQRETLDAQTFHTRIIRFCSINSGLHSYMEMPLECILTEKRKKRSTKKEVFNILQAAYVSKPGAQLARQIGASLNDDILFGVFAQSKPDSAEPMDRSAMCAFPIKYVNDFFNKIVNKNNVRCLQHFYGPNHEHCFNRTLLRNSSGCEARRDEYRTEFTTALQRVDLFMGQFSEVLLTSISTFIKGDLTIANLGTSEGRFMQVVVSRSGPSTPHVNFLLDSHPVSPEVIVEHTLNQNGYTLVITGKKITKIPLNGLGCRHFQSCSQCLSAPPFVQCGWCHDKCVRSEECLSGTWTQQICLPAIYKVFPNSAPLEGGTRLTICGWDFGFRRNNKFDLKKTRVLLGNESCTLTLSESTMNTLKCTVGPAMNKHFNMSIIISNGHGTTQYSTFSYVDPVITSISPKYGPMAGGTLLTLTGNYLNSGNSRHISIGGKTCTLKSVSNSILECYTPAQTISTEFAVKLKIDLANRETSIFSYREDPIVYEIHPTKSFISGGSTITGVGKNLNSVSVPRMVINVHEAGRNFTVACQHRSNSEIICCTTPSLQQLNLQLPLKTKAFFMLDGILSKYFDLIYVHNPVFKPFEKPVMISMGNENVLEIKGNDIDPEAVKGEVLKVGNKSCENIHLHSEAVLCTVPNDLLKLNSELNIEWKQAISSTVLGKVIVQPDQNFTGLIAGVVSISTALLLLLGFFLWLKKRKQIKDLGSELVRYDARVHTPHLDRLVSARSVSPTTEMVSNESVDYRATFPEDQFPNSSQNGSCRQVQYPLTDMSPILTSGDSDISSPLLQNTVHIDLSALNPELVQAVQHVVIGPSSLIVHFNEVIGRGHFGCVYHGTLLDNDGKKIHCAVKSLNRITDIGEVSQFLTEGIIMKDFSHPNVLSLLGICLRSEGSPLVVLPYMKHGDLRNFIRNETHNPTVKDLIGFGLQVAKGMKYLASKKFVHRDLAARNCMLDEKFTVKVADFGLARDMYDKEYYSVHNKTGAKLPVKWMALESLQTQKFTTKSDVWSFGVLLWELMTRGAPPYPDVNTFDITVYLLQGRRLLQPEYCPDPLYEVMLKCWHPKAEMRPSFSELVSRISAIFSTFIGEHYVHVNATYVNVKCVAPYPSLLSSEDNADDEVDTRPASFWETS
# Description: PC-3 prostate cancer cells (ATCC #CRL-1435) were seeded at 4×10^4 cells/well onto 24-well plates (Greiner #662165), in DMEM (Thermo Fisher #11995-040) containing 10% FBS (Thermo Fisher #26140-079), 1% MEM NEAA (Thermo Fisher #11140-050), 1% GlutaMax (Thermo Fisher #35050-061), and 1% Penicillin Streptomycin (Thermo Fisher #15140-122). PC-3 cells were incubated at 37° C., 5% CO2 for 24 h and then starved for 3 h in serum-free medium. Test compounds were serially diluted to produce an 8-point dose curve in fresh serum-free medium to a final concentration of 0.3% DMSO (vehicle) and added to the cells and incubated for 1 h. Cells were then stimulated with 100 ng/mL recombinant human HGF (R&D Systems #294-HG-250) for 10 min, washed with cold PBS and immediately lysed with 130 μL of cold 1× lysis buffer [20 mM Tris, 137 mM sodium chloride, 2 mM EDTA, 10% glycerol, 1% NP-40 alternative, 1 mM activated sodium orthovanadate, 1 mM PefaBloc SC (Sigma-Aldrich #11429868001), protease/phosphatase inhibitor tablet (Thermo Fisher #A32959)]. Lysates were clarified by centrifugation and 100 μL/well added into the PathScan phospho-Met (panTyr) Sandwich ELISA (Cell Signaling Technology #7333). Assay was performed according to manufacturer's instructions. Positive control wells (100% activity) contained HGF-stimulated, DMSO-treated cell lysates. Negative control wells (0% activity) contained HGF-stimulated, reference inhibitor-treated cell lysates. IC50 values were calculated by nonlinear regression analysis using a 4-parameter logistic curve fit in ActivityBase XE (IDBS).
# Chain of KDR (P35968 20-1356): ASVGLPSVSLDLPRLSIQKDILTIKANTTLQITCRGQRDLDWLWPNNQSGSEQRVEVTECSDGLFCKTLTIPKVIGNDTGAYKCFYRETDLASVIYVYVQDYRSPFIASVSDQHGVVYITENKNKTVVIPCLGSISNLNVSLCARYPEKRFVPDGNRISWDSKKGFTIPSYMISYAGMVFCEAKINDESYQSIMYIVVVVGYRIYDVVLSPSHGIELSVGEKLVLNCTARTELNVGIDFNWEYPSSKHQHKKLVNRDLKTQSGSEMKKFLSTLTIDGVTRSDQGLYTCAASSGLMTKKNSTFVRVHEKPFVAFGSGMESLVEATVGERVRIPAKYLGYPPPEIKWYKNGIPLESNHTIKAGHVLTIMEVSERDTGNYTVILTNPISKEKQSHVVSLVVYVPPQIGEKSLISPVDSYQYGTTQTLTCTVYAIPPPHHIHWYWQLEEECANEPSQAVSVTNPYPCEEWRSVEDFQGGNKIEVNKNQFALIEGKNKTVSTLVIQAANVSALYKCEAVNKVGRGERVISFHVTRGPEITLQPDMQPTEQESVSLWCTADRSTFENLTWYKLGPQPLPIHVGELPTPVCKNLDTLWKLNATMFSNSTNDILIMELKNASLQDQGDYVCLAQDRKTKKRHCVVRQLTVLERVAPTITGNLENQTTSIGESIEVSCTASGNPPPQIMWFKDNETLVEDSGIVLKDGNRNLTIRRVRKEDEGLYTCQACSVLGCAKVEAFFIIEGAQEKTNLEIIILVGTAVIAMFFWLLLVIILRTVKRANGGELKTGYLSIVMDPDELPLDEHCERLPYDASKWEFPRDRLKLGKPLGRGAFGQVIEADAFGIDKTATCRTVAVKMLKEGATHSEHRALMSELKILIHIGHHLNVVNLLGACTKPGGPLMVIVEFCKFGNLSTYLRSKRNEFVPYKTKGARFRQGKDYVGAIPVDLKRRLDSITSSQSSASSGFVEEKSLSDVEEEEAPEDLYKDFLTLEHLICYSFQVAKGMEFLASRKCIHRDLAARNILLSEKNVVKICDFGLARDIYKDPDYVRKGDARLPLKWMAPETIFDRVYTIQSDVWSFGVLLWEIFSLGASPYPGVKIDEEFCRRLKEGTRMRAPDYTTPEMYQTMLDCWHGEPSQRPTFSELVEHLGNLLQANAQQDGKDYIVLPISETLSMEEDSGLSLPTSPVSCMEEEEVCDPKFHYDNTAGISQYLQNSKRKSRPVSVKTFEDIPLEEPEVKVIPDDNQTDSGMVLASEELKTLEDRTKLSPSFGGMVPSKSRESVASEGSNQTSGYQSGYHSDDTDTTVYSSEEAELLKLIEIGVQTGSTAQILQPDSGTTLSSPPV
Structure (SMILES),IC50 (KDR),IC50 (Met)
"Cc1cncc(-c2ccc3c(Oc4ccc(NC(=O)C5(C(=O)Nc6ccc(F)cc6)CC5)cc4)ccnc3c2)c1 [Compound 46, 1-N′-(4-Fluorophenyl)-1-N-[4-[7-(5-methylpyridin-3-yl)quinolin-4-yl]oxyphenyl]cyclopropane-1,1-dicarboxamide]",10 to 100 nM,100 to 300 nM
"Cc1cc2c(Oc3cc(Cl)c(NC(=O)C4(C(=O)Nc5ccc(F)cc5)CC4)cc3F)ccnc2cc1-c1cnn(C)c1 [Compound 112, 1-N′-[2-Chloro-5-fluoro-4-[6-methyl-7-(1-methylpyrazol-4-yl)quinolin-4-yl]oxyphenyl]-1-N-(4-fluorophenyl)cyclopropane-1,1-dicarboxamide]",> 300 nM,10 to 100 nM
"Cc1cc(-c2ccc3c(Oc4ccc(NC(=O)C5(C(=O)Nc6ccc(F)cc6)CC5)cc4)ccnc3c2)ccn1 [Compound 30, 1-N′-(4-Fluorophenyl)-1-N-[4-[7-(2-methylpyridin-4-yl)quinolin-4-yl]oxyphenyl]cyclopropane-1,1-dicarboxamide]",10 to 100 nM,10 to 100 nM
"N#Cc1ccc(-c2ccc3c(Oc4ccc(NC(=O)C5(C(=O)Nc6ccc(F)cc6)CC5)cc4)ccnc3c2)cn1 [Compound 42, 1-N-[4-[7-(6-Cyanopyridin-3-yl)quinolin-4-yl]oxyphenyl]-1-N′-(4-fluorophenyl)cyclopropane-1,1-dicarboxamide]",10 to 100 nM,10 to 100 nM
"O=C(Nc1ccc(F)cc1)C1(C(=O)Nc2ccc(Oc3ccnc4cc(-c5cccnc5O)ccc34)cc2)CC1 [Compound 52, 1-N′-(4-Fluorophenyl)-1-N-[4-[7-(2-hydroxypyridin-3-yl)quinolin-4-yl]oxyphenyl]cyclopropane-1,1-dicarboxamide]",10 to 100 nM,10 to 100 nM
"Nc1ccc(-c2ccc3c(Oc4ccc(NC(=O)C5(C(=O)Nc6ccc(F)cc6)CC5)cc4)ccnc3c2)cn1 [Compound 38, 1-N-[4-[7-(6-Aminopyridin-3-yl)quinolin-4-yl]oxyphenyl]-1-N′-(4-fluorophenyl)cyclopropane-1,1-dicarboxamide]",10 to 100 nM,10 to 100 nM

# Results, then the molecule that gave them:
IC50 (KDR),IC50 (Met),Structure (SMILES)
10 to 100 nM,10 to 100 nM,"O=C(Nc1ccc(F)cc1)C1(C(=O)Nc2cc(F)c(Oc3ccnc4cc(-c5cnn(C(F)F)c5)ccc34)cc2F)CC1 [Compound 118, 1-N′-[4-[7-[1-(Difluoromethyl)pyrazol-4-yl]quinolin-4-yl]oxy-2,5-difluorophenyl]-1-N-(4-fluorophenyl)cyclopropane-1,1-dicarboxamide]"
10 to 100 nM,10 to 100 nM,"O=C(Nc1ccc(F)cc1)C1(C(=O)Nc2ccc(Oc3ccnc4cc(-c5cnc6[nH]ncc6c5)ccc34)cc2)CC1 [Compound 39, 1-N′-(4-Fluorophenyl)-1-N-[4-[7-(1H-pyrazolo[3,4-b]pyridin-5-yl)quinolin-4-yl]oxyphenyl]cyclopropane-1,1-dicarboxamide]"
≤ 10 nM,10 to 100 nM,"O=C(Nc1ccc(F)cc1)C1(C(=O)Nc2ccc(Oc3ccnc4cc(-c5ccc[n+]([O-])c5)ccc34)cc2)CC1 [Compound 109, 1-N′-(4-Fluorophenyl)-1-N-[4-[7-(1-oxidopyridin-1-ium-3-yl)quinolin-4-yl]oxyphenyl]cyclopropane-1,1-dicarboxamide]"
≤ 10 nM,≤ 10 nM,"O=C(Nc1ccc(F)cc1)C1(C(=O)Nc2ccc(Oc3ccnc4cc(-c5ccc(O)nc5)ccc34)cc2)CC1 [Compound 51, 1-N′-(4-Fluorophenyl)-1-N-[4-[7-(6-hydroxypyridin-3-yl)quinolin-4-yl]oxyphenyl]cyclopropane-1,1-dicarboxamide]"
≤ 10 nM,10 to 100 nM,"O=C(Nc1ccc(F)cc1)C1(C(=O)Nc2ccc(Oc3ccnc4cc(-c5cnn(C(F)F)c5)ccc34)c(F)c2)CC1 [Compound 123, 1-N′-[4-[7-[1-(Difluoromethyl)pyrazol-4-yl]quinolin-4-yl]oxy-3-fluorophenyl]-1-N-(4-fluorophenyl)cyclopropane-1,1-dicarboxamide]"
